Here are results for 21 compounds from PubChem BioAssay AID330 (DTP/NCI, 2004).

Values joined by “and” are separate entries in the source; they are usually repeats but may differ in a detail not shown here. Equal entries are not always repeated. Inconclusive results and toxic doses are left out.

For this assay, the system named is P388 leukemia ip, CD2F1 mice, survival T/C. Nature of the assay: NCI In Vivo Anticancer Drug Screen. Data for tumor model P388 Leukemia (intraperitoneal) in CD2F1 (CDF1) mice. The conditions noted are these: endpoint: median survival time, higher = longer survival. The gist of the method:
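Mice carrying the transplanted tumor received test compound or vehicle. Survival was recorded in each group, and the value is the treated-group measurement divided by that of the vehicle-treated control group.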

Setting [1] is: dose: 50.0 mg/kg/injection, schedule: Q01DX005 (ip), vehicle: saline with Tween-80.
The mark [2] stands for this setting: dose: 25.0 mg/kg/injection, schedule: Q01DX005 (ip), vehicle: Klucel (hydroxypropylcellulose) (HPC).
Setting [3] is: dose: 50.0 mg/kg/injection, schedule: Q01DX005 (ip), vehicle: Klucel (hydroxypropylcellulose) (HPC).
Setting [4] is: dose: 6.25 mg/kg/injection, schedule: Q01DX009 (ip), vehicle: water.
Setting [5] is: dose: 25.0 mg/kg/injection, schedule: Q01DX005 (ip), vehicle: saline with Tween-80.
[6] abbreviates: dose: 100.0 mg/kg/injection, schedule: Q01DX005 (ip), vehicle: saline with Tween-80.
Setting [7] is: dose: 25.0 mg/kg/injection, schedule: Q01DX009 (ip), vehicle: saline with Tween-80.
Setting [8] is: dose: 50.0 mg/kg/injection, schedule: Q01DX009 (ip), vehicle: saline with Tween-80.
Where [9] appears, read: dose: 100.0 mg/kg/injection, schedule: Q01DX009 (ip), vehicle: saline with Tween-80.
Setting [10] is: dose: 200.0 mg/kg/injection, schedule: Q01DX005 (ip), vehicle: saline with Tween-80.

Regarding `CC1(C)OC2CC(=O)OCC23C1CC(=O)C1(C)C2=CC(=O)OC(c4ccoc4)C2(C)CCC13` (stereo not given), the T/C is, setting by setting: (dose: 0.5 mg/kg/injection, schedule: Q01DX009 (ip), vehicle: saline + alcohol) 106 % of control; (dose: 1.0 mg/kg/injection, schedule: Q01DX009 (ip), vehicle: saline + alcohol) 108 % of control; (dose: 2.0 mg/kg/injection, schedule: Q01DX009 (ip), vehicle: saline + alcohol) 101 % of control; (dose: 4.0 mg/kg/injection, schedule: Q01DX009 (ip), vehicle: saline + alcohol) 105 % of control.

With `S=c1n(-c2ccc(Cl)cc2)c2nc3ccccc3nc(/c2=N\Nc2ccc(Br)cc2)n1-c1ccccn1`, the T/C under setting [1] was 101 % of control.

With `N#CC1C2C1C1C=CC2n2c(=O)n(-c3ccccc3)c(=O)n21` (stereo not given), the T/C reads like this: (dose: 6.25 mg/kg/injection, schedule: Q01DX005 (ip), vehicle: Klucel (hydroxypropylcellulose) (HPC)) 99 % of control; (dose: 12.5 mg/kg/injection, schedule: Q01DX005 (ip), vehicle: Klucel (hydroxypropylcellulose) (HPC)) 102 % of control; under setting [2], 108 % of control and 98 % of control; under setting [3], 99 % of control and 111 % of control.

Regarding `ClCCN(CCN(CCCl)c1cccc2ccccc12)c1cccc2ccccc12`, the T/C by setting is: (dose: 50.0 mg/kg/injection, schedule: Q04DX003 (ip), vehicle: Klucel (hydroxypropylcellulose) (HPC)) 104 % of control; (dose: 100.0 mg/kg/injection, schedule: Q04DX003 (ip), vehicle: Klucel (hydroxypropylcellulose) (HPC)) 103 % of control; (dose: 200.0 mg/kg/injection, schedule: Q04DX003 (ip), vehicle: Klucel (hydroxypropylcellulose) (HPC)) 107 % of control.

As for `CNC(=O)OCc1c(-c2ccccc2)c(-c2ccccc2)n(-c2ccc(OC)cc2)c1COC(=O)NC`, the T/C is, setting by setting: (dose: 12.5 mg/kg/injection, schedule: Q01DX009 (ip), vehicle: distilled water + Tween-80) 106 % of control; (dose: 25.0 mg/kg/injection, schedule: Q01DX009 (ip), vehicle: distilled water + Tween-80) 103 % of control and 119 % of control; (dose: 50.0 mg/kg/injection, schedule: Q01DX009 (ip), vehicle: distilled water + Tween-80) 102 % of control and 119 % of control; (dose: 100.0 mg/kg/injection, schedule: Q01DX009 (ip), vehicle: distilled water + Tween-80) 116 % of control and 124 % of control.

Take `Cc1ccc(S(=O)(=O)NCCN(C)C)cc1`: the T/C runs as follows: (dose: 50.0 mg/kg/injection, schedule: Q01DX009 (ip), vehicle: Klucel (hydroxypropylcellulose) (HPC)) 99 % of control; (dose: 100.0 mg/kg/injection, schedule: Q01DX009 (ip), vehicle: Klucel (hydroxypropylcellulose) (HPC)) 99 % of control; (dose: 200.0 mg/kg/injection, schedule: Q01DX009 (ip), vehicle: Klucel (hydroxypropylcellulose) (HPC)) 102 % of control; (dose: 400.0 mg/kg/injection, schedule: Q01DX009 (ip), vehicle: Klucel (hydroxypropylcellulose) (HPC)) 101 % of control.

For the compound `O=C(NC(CO)C(=O)O)c1ccccc1` (stereo not given), the T/C is, setting by setting: (dose: 50.0 mg/kg/injection, schedule: Q01DX005 (ip), vehicle: saline) 100 % of control; (dose: 100.0 mg/kg/injection, schedule: Q01DX005 (ip), vehicle: saline) 100 % of control; (dose: 200.0 mg/kg/injection, schedule: Q01DX005 (ip), vehicle: saline) 100 % of control.

For the compound `CC(C)NC1CC2CCCCC2CC1c1ccccc1` (stereo not given), the T/C reads like this: (dose: 100.0 mg/kg/injection, schedule: Q01DX001 (ip), vehicle: Klucel (hydroxypropylcellulose) (HPC)) 93 % of control; (dose: 200.0 mg/kg/injection, schedule: Q01DX001 (ip), vehicle: Klucel (hydroxypropylcellulose) (HPC)) 93 % of control; (dose: 400.0 mg/kg/injection, schedule: Q01DX001 (ip), vehicle: Klucel (hydroxypropylcellulose) (HPC)) 88 % of control.

With `C/C(=N/N=C(N)N)c1ccc(NC(=O)Nc2ccc(/C(C)=N/N=C(N)N)cc2)cc1`, the T/C under setting [4] was 151 % of control; the T/C (dose: 100.0 mg/kg/injection, schedule: Q04DX003 (ip), vehicle: saline with Tween-80) is 150 % of control; the T/C (dose: 150.0 mg/kg/injection, schedule: Q04DX003 (ip), vehicle: saline with Tween-80) is 118 % of control.

Take `CSC(=C[N+](=O)[O-])SC`: the T/C is, setting by setting: (dose: 3.13 mg/kg/injection, schedule: Q01DX009 (ip), vehicle: water) 100 % of control; under setting [4], 105 % of control; (dose: 12.5 mg/kg/injection, schedule: Q01DX009 (ip), vehicle: water) 96 % of control; (dose: 25.0 mg/kg/injection, schedule: Q01DX009 (ip), vehicle: water) 104 % of control.

On to `COc1ccc(CCNC2=CC(=O)CC2)cc1OC`, for which the T/C is 92 % of control under setting [5], 89 % of control under setting [1] and 92 % of control under setting [6].

With `N#CCCSC(=S)C1CCCC1=N` (stereo not given), the T/C is 114 % of control and 123 % of control (dose: 12.5 mg/kg/injection, schedule: Q01DX009 (ip), vehicle: saline with Tween-80); 110 % of control and 116 % of control under setting [7]; 104 % of control and 109 % of control under setting [8]; 102 % of control and 116 % of control under setting [9].

For the compound `O[C@H]1CCC[C@H]1NCc1ccnc2cc(Cl)ccc12`, the T/C is, setting by setting: under setting [1], 100 % of control; under setting [6], 89 % of control; under setting [10], 91 % of control.

On to `COC(=O)C1=COC(OC2OC(CO)C(O)C(O)C2O)C2C(C)C(O)C(OC(=O)/C=C/c3ccc(OC)cc3)C12` (stereo not given), for which the T/C is, setting by setting: (dose: 9.38 mg/kg/injection, schedule: Q01DX005 (ip), vehicle: Klucel (hydroxypropylcellulose) (HPC)) 96 % of control; (dose: 37.5 mg/kg/injection, schedule: Q01DX005 (ip), vehicle: Klucel (hydroxypropylcellulose) (HPC)) 88 % of control; (dose: 60.0 mg/kg/injection, schedule: Q01DX005 (ip), vehicle: Klucel (hydroxypropylcellulose) (HPC)) 93 % of control; (dose: 75.0 mg/kg/injection, schedule: Q01DX005 (ip), vehicle: Klucel (hydroxypropylcellulose) (HPC)) 88 % of control; (dose: 120.0 mg/kg/injection, schedule: Q01DX005 (ip), vehicle: Klucel (hydroxypropylcellulose) (HPC)) 93 % of control; (dose: 240.0 mg/kg/injection, schedule: Q01DX005 (ip), vehicle: Klucel (hydroxypropylcellulose) (HPC)) 86 % of control.

Consider `c1ccc(-c2ccc[n+](CC[n+]3cccc(-c4ccccn4)c3)c2)nc1`, for which the T/C reads like this: (dose: 60.0 mg/kg/injection, schedule: Q01DX005 (ip), vehicle: saline with Tween-80) 104 % of control; (dose: 120.0 mg/kg/injection, schedule: Q01DX005 (ip), vehicle: saline with Tween-80) 100 % of control.

`COC(=O)C1=[N+]([O-])OC(C(=O)OC)C1c1ccc(NC(C)=O)cc1` (stereo not given): the T/C is 98 % of control under setting [1], 93 % of control under setting [6] and 90 % of control under setting [10].

Take `O=C(NNC(=O)C12CC3CC(CC(C3)C1)C2)C12CC3CC(CC(C3)C1)C2`: the T/C under setting [2] is 105 % of control; the T/C under setting [3] is 102 % of control; the T/C (dose: 100.0 mg/kg/injection, schedule: Q01DX005 (ip), vehicle: Klucel (hydroxypropylcellulose) (HPC)) was 105 % of control; the T/C (dose: 200.0 mg/kg/injection, schedule: Q01DX005 (ip), vehicle: Klucel (hydroxypropylcellulose) (HPC)) is 105 % of control.

Turning to `CCN(CC)CC(C)(C)C(=O)/C=C/c1ccc(Cl)cc1`, the T/C was 110 % of control (dose: 60.0 mg/kg/injection, schedule: Q01DX005 (ip), vehicle: saline) and 116 % of control (dose: 120.0 mg/kg/injection, schedule: Q01DX005 (ip), vehicle: saline).

`COP(=S)(NC(C)C)Oc1ccc(C)cc1[N+](=O)[O-]` (stereo not given): the T/C under setting [8] is 98 % of control; the T/C under setting [9] was 100 % of control; the T/C (dose: 200.0 mg/kg/injection, schedule: Q01DX009 (ip), vehicle: saline with Tween-80) is 90 % of control.

With `Cc1ccc(C(C)(N=[N+]=[N-])c2ccccc2)cc1C` (stereo not given), the T/C is 91 % of control under setting [7], 108 % of control under setting [8] and 109 % of control under setting [9].

For `C/C(=N\NC(=S)Nc1ccc(S(N)(=O)=O)cc1)c1ccccn1`, the T/C is 94 % of control (dose: 12.5 mg/kg/injection, schedule: Q01DX005 (ip), vehicle: saline with Tween-80); 108 % of control under setting [5]; 119 % of control under setting [1]; 96 % of control under setting [6].
